According to US9062045B2, “Triazolopyridine compounds” (Novartis AG, priority 2012, dated 2015):
pIC50: −log10 of the molar value. Where two headings read alike, the source gives them in different places.

Experiments:
GTL16 cells = test: GTL16 cell viability assay (CellTiter Glo); conditions: read-out: GTL-16 Proliferation IC50; GTL16 cells, 24 hours
Experimental: GTL16 Cell Viability Assay:
GTL16 expresses high level of c-Met receptor tyrosine kinase due to the gene amplification.
GTL16 cells were seeded in DMEM medium with 10% FBS and 1% Pene. & Strep. at 5000 cells/well/90 μL in 96 well plate and incubated overnight for attachment at 37° C. in 5% CO2 incubator. 10-fold serials dilutions of compounds were added to the cell as 10 μL/well. The final assay volume was 100 μl/well. The assay plates were incubated at 37° C. in 5% CO2 incubator for 24 hours. […] The chemiluminescent light unit was read in Envision from Perkin Elmer. All the tests were run at triplicates. The IC50 was calculated using Spotfire software.

human platelet PDE3 = human platelet PDE3 (Homo sapiens (Human), UniProt Q14432); test: hPDE3 assay ([3H]cAMP scintillation proximity assay); assay type: biochemical
Source text: Here, compounds of formula I were screened for their ability to inhibit human PDE3 in the assay based on Amersham Pharmacia Biotech's Phosphodiesterase (PDE) [^3H]-adenosine 3′,5′ cyclic phosphate ([^3H]cAMP) Scintillation Proximity Assay (SPA). The assay is based on the hydrolysis of [^3H]cAMP, by human platelet PDE3, to [^3H]5′-adenoside monophosphate (5′-AMP). The [^3H]5′-AMP is specifically captured by yttrium silicate SPA beads in the presence of zinc sulphate.
• Optiplate and TopSeal-S (Can berra Packard) • Human platelet PDE3 (partially purified from human platelets)—a titration curve of human platelet PDE3 activity was performed to optimise the concentration of hPDE3 required in the assay. • Yttrium silicate SPA beads and [^3H]cAMP (Amersham) • Tris-Base, magnesium chloride, ethylenediaminetetraacetic acid (di-sodium salt), bovine serum albumin BSA and cAMP (Sigma) Solutions and Buffers: • Assay buffer: 7.56 g Tris-Base was dissolved in approximately 800 mL distilled water and the pH adjusted to 7.5 with 1 M hydrochloric acid. 10.3 mL 1 M magnesium chloride and 4.25 mL 0.5 M EDTA were added. The solution was made to 1 L with distilled water and stored at 4° C. On day of use 18 mL of the above solution was removed and 2 mL 5 mg/ml BSA were added thereto. • Enzyme buffer: 10 mM Tris-HCl at pH 7.5, 1 mM EDTA • Yttrium silicate SPA beads: 1 vial was reconstituted in 28 mL distilled water and stored at 4° C. Assay
The assay was performed in a final volume of 100 μL per well of an Optiplate (Canberra Packard). A 10 μL aliquot of the test compound dissolved in DMSO/distilled water was placed in a well of an Optiplate plate, followed by the addition of 80 μL ‘Assay mix’ (5.5 μL [^3H]cAMP and 88 μL “cold” cAMP were diluted to 8.8 mL using assay buffer). The reaction was started by adding 10 μL hPDE3 (50 μL stock hPDE3 solution was diluted 50 fold to 2.5 mL using enzyme buffer). The plate was incubated at room temperature for 30 min, the reaction was then terminated by the addition of 50 μL Yttrium silicate SPA beads (pre-warmed to room temperature) to all wells. […] The plate was sealed using TopSeal-S according to the manufacturer's instructions and counted using a Packard TopCount, each well being counted for 1 min. IC50 values were determined using non-linear regression.

human platelet PDE3, sequence (Q14432 whole entry): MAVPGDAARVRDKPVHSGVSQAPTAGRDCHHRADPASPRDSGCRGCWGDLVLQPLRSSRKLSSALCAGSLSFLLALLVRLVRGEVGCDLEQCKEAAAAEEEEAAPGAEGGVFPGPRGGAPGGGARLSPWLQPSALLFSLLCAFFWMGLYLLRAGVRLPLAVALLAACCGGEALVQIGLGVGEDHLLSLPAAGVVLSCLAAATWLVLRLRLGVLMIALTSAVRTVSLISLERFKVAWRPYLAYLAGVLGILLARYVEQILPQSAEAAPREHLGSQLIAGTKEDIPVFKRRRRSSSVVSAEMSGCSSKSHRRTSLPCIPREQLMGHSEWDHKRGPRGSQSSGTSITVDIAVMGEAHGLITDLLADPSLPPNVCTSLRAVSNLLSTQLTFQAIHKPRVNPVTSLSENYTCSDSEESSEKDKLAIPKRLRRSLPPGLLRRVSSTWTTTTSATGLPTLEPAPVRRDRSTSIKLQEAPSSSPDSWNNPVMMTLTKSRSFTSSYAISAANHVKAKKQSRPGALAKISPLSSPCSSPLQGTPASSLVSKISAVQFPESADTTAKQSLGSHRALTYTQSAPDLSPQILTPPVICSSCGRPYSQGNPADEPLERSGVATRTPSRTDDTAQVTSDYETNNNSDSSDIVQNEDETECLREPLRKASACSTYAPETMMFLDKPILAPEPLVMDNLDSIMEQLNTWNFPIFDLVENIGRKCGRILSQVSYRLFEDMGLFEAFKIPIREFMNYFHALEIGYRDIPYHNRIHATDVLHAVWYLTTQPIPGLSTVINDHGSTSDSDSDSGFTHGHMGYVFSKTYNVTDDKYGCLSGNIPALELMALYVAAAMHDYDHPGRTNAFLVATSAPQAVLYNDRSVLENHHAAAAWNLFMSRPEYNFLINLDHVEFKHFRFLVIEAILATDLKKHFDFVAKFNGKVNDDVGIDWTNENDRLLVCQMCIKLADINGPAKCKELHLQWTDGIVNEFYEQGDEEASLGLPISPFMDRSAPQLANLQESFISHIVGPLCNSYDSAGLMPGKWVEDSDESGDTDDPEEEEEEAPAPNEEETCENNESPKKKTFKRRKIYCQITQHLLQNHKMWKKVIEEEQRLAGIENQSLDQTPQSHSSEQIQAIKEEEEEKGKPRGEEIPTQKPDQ

SMILES	pIC50 (human platelet PDE3; human platelet PDE3)	pIC50 (GTL16 cells)	pIC50 (human platelet PDE3)
C/C(=N\OCCO)c1ccc2nnc(Sc3ccc4ncc(N5CCOCC5)cc4c3)n2c1 [Example 78, (E)-1-(3-((3-Morpholin-4-yl-quinolin-6-yl)thio)-[1,2,4]triazolo[4,3-a]pyridin-6-yl)ethanone O-(2-hydroxyethyl)oxime]	4.55		
C/C(=N\O)c1ccc2nnc(Sc3ccc4ncc(N5CC[C@H](N(C)C)C5)cc4c3)n2c1 [Example 82, (S,E)-1-(3-(3-(3-(Dimethylamino)pyrrolidin-1-yl)quinolin-6-ylthio)-[1,2,4]triazolo[4,3-a]pyridin-6-yl)ethanone oxime]			4.96
Cn1cc(-c2ccc3nnc(Sc4ccc5ncc(NC6CCNCC6)cc5c4)n3c2)cn1 [Example 23, 6-(6-(1-Methyl-1H-pyrazol-4-yl)-[1,2,4]triazolo[4,3-a]pyridin-3-ylthio)-N-(piperidin-4-yl)quinolin-3-amine]	4.52	6.54	
C/C(=N\OCCO)c1ccc2nnc(Sc3ccc4ncc(CN5CCOCC5)cc4c3)n2c1 [Example 80, (E)-1-(3-((3-(Morpholin-4-yl-methyl)quinolin-6-yl)thio)-[1,2,4]triazolo[4,3-a]pyridin-6-yl)ethanone O-(2-hydroxyethyl)oxime]	4.52		
CN1CCN(Cc2cnc3ccc(Sc4nnc5ccc(-c6cnn(C)c6)cn45)cc3c2)CC1 [Example 6, 6-(6-(1-Methyl-1H-pyrazol-4-yl)-[1,2,4]triazolo[4,3-a]pyridin-3-ylthio)-3-((4-methylpiperazin-1-yl)methyl)quinoline]	4.52	7.57	
Cn1cc(-c2ccc3nnc(Sc4ccc5ncc(NC6CC(C)(C)NC(C)(C)C6)cc5c4)n3c2)cn1 [Example 62, 6-(6-(1-Methyl-1H-pyrazol-4-yl)-[1,2,4]triazolo[4,3-a]pyridin-3-ylthio)-N-(2,2,6,6-tetramethylpiperidin-4-yl)quinolin-3-amine]	4.74	7.14	
Cn1cc(-c2cc(F)c3nnc(Sc4ccc5ncc(NCCO)cc5c4)n3c2)cn1 [Example 54, 2-(6-(8-Fluoro-6-(1-methyl-1H-pyrazol-4-yl)-[1,2,4]triazolo[4,3-a]pyridin-3-ylthio)quinolin-3-ylamino)ethanol]		7.85	
COC1CCN(c2cnc3ccc(Sc4nnc5ccc(-c6cnn(C)c6)cn45)cc3c2)CC1 [Example 43, 3-(4-Methoxypiperidin-1-yl)-6-(6-(1-methyl-1H-pyrazol-4-yl)-[1,2,4]triazolo[4,3-a]pyridin-3-ylthio)quinoline]		9.52	
CN1CCC(Nc2cnc3ccc(Sc4nnc5c(F)cc(-c6cnn(C)c6)cn45)cc3c2)CC1 [Example 8, {6-[8-Fluoro-6-(1-methyl-1H-pyrazol-4-yl)-[1,2,4]triazolo[4,3-a]pyridin-3-ylsulfanyl]-quinolin-3-yl}-(1-methyl-piperidin-4-yl)-amine]	4.52		
Cn1cc(-c2ccc3nnc(Sc4ccc5ncc(N6CCC(N)CC6)cc5c4)n3c2)cn1 [Example 21, 1-(6-(6-(1-Methyl-1H-pyrazol-4-yl)-[1,2,4]triazolo[4,3-a]pyridin-3-ylthio)quinolin-3-yl)piperidin-4-amine]		7.44	
OCCn1cc(-c2cnc3nnn(Cc4ccc5ncccc5c4)c3n2)cn1 [Comparator No. 3 (PF-04217903), 2-[4-(3-Quinolin-6-ylmethyl-3H-[1,2,3]triazolo[4,5-b]pyrazin-5-yl)-pyrazol-1-yl]-ethanol, reference compound]		> 8.00	
CN1CCN(c2cnc3ccc(Sc4nnc5ccc(-c6cnn(C)c6)cn45)cc3c2)CC1 [Example 74, 3-(4-Methyl-piperazin-1-yl)-6-[6-(1-methyl-1H-pyrazol-4-yl)-[1,2,4]triazolo[4,3-a]pyridin-3-ylsulfanyl]-quinoline]		8.70	
Cn1cc(-c2cc(F)c3nnc(Sc4ccc5ncc(N6CCOCC6)cc5c4)n3c2)cn1 [Example 70, 4-(6-(8-Fluoro-6-(1-methyl-1H-pyrazol-4-yl)-[1,2,4]triazolo[4,3-a]pyridin-3-ylthio)quinolin-3-yl)morpholine]		9.00	
Cn1cc(-c2ccc3nnc(Sc4ccc5ncc(N6CCCC(N)C6)cc5c4)n3c2)cn1 (stereo not shown) [Example 10, 1-(6-(6-(1-Methyl-1H-pyrazol-4-yl)-[1,2,4]triazolo[4,3-a]pyridin-3-ylthio)quinolin-3-yl)piperidin-3-amine]		7.68	

More lines, main results first:

pIC50 (human platelet PDE3; human platelet PDE3)	SMILES	pIC50 (GTL16 cells)	pIC50 (human platelet PDE3)
4.70	C/C(=N\OCCO)c1ccc2nnc(Sc3ccc4ncc(NC5CCOCC5)cc4c3)n2c1 [Example 83, (E)-1-(3-(3-(Tetrahydro-2H-pyran-4-ylamino)quinolin-6-ylthio)-[1,2,4]triazolo[4,3-a]pyridin-6-yl)ethanone O-2-hydroxyethyl oxime]	9.00	
5.22	C/C(=N\O)c1ccc2nnc(Sc3ccc4ncc(NC5CCOCC5)cc4c3)n2c1 [Example 84, (E)-1-(3-(3-(Tetrahydro-2H-pyran-4-ylamino)quinolin-6-ylthio)-[1,2,4]triazolo[4,3-a]pyridin-6-yl)ethanone oxime]	8.52	
5.15	Cn1cc(-c2ccc3nnc(Sc4ccc5ncc(NC6CCOC6)cc5c4)n3c2)cn1 (stereo not shown) [Example 51]	8.05	
4.52	Cn1cc(-c2cc(F)c3nnc(Sc4ccc5ncc(N6CCC(O)CC6)cc5c4)n3c2)cn1 [Example 50, 1-(6-((8-Fluoro-6-(1-methyl-1H-pyrazol-4-yl)-[1,2,4]triazolo[4,3-a]pyridin-3-yl)thio)quinolin-3-yl)piperidin-4-ol]	9.00	
4.92	Cn1cc(-c2ccc3nnc(Sc4ccc5ncc(N6CCC7(CCOCC7)C6)cc5c4)n3c2)cn1 [Example 47, 2-(6-((6-(1-Methyl-1H-pyrazol-4-yl)-[1,2,4]triazolo[4,3-a]pyridin-3-yl)thio)quinolin-3-yl)-8-oxa-2-azaspiro[4.5]decane]	8.52	
4.92	Cn1cc(-c2ccc3nnc(Sc4ccc5ncc(N6CCC(F)(F)CC6)cc5c4)n3c2)cn1 [Example 61, 3-(4,4-Difluoro-piperidin-1-yl)-6-[6-(1-methyl-1H-pyrazol-4-yl)-[1,2,4]triazolo[4,3-a]pyridin-3-ylsulfanyl]-quinoline]	8.70	
4.92	C/C(=N\O)c1ccc2nnc(Sc3ccc4ncc(N5CCOCC5)cc4c3)n2c1 [Example 77, (E)-1-(3-((3-Morpholin-4-yl-quinolin-6-yl)thio)-[1,2,4]triazolo[4,3-a]pyridin-6-yl)ethanone oxime]	8.10	
4.77	Cn1cc(-c2ccc3nnc(Sc4ccc5ncc(N6CCNCC6)cc5c4)n3c2)cn1 [Example 27, 6-(6-(1-Methyl-1H-pyrazol-4-yl)-[1,2,4]triazolo[4,3-a]pyridin-3-ylthio)-3-(piperazin-1-yl)quinoline]	8.40	
4.85	C/C(=N\OCCO)c1ccc2nnc(Sc3ccc4ncc(N5CCC(O)CC5)cc4c3)n2c1 [Example 76, (E)-1-(3-((3-(4-Hydroxypiperidin-1-yl)quinolin-6-yl)thio)-[1,2,4]triazolo[4,3-a]pyridin-6-yl)-ethanone O-(2-hydroxyethyl)oxime]	7.27	
4.85	Cn1cc(-c2ccc3nnc(Sc4ccc5ncc(NCCO)cc5c4)n3c2)cn1 [Example 53, 2-(6-(6-(1-methyl-1H-pyrazol-4-yl)-[1,2,4]triazolo[4,3-a]pyridin-3-ylthio)quinolin-3-ylamino)ethanol]	7.77	
4.52	C/C(=N\OCCO)c1cc(F)c2nnc(Sc3ccc4ncc(N5CC[C@H](N(C)C)C5)cc4c3)n2c1 [Example 85, (S,E)-1-{3-[3-(3-dimethylamino-pyrrolidin-1-yl)-quinolin-6-ylthio]-8-fluoro-[1,2,4]triazolo[4,3-a]pyridin-6-yl}ethanone O-(2-hydroxy-ethyl)-oxime]	7.64	
4.57	C/C(=N\OCCO)c1ccc2nnc(Sc3ccc4ncc(N5CCN(C)CC5)cc4c3)n2c1 [Example 86, (E)-1-(3-(3-(4-methylpiperazin-1-yl)quinolin-6-ylthio)-[1,2,4]triazolo[4,3-a]pyridin-6-yl)ethanone O-2-hydroxyethyl oxime]	7.29	
4.52	CN1CCC(Nc2cnc3ccc(Sc4nnc5ccc(-c6cnn(C)c6)cn45)cc3c2)CC1 [Example 15, (1-Methyl-piperidin-4-yl)-{6-[6-(1-methyl-1H-pyrazol-4-yl)-[1,2,4]triazolo[4,3-a]pyridin-3-ylsulfanyl]-quinolin-3-yl}-amine]	8.70	
